Test results: patent US12172988B2, “Anticancer and antifungal splice modulators” (priority 2021, dated 2024)
Where two headings read alike, the source gives them in different places.

Assays:
[1] = test system: DNAJB1; assay: qPCR splicing analysis, DNAJB1 intron retention; assay type: cell-based, human; conditions: HCT116, 4 h, 20 times GI50, qPCR relative to GAPDH
Protocol: (§1) HCT116 tumor cells were treated with each analogue at 20 times the G150 value (Table 12) for 4 hours and then cellular RNA was isolated and purified for qPCR. Primers were designed to evaluate intron retention or exon skipping, direct responses to splice modulator treatment. Genes evaluated included those involved in splicing regulation (SF3A1, SF3A3, SF3B1, SF3B2), apoptosis (MCL-1L), protein folding (DNAJB1), and cell cycle regulation (AURKA, PLK-1) relative to the unspliced control GAPDH. For alternative splicing regulator (SF2), primers were designed to evaluate gene expression, which changes in response splice modulator treatment for SF2 relative to the unspliced control GAPDH. (−) denotes untreated cells.
as §1, with “analogues” for “each analogue”, “100 nM (light grey), 250 nM (grey), or 500 nM (black)” for “20 times the G150 value (Table 12)”, “24 h” for “4 hours”, “(MCL-1L), and” for “(MCL-1L),”, “(DNAJB1),” for “(DNAJB1), and cell cycle regulation (AURKA, PLK-1)”, “(—)” for “(−)”
(§2) Next, we turned our efforts to explore the ability of these analogues to modulate splicing. […] We treated cells for 4 h so that we could evaluate early changes in splicing activity, and then cellular RNA was isolated and purified for analyses by qPCR (FIG. 14). Most importantly, none of the concentrations tested led to significant changes in cell viability, ensuring that changes in gene expression were not due to cell death.
(§3) For these studies, we evaluated the expression of genes involved in splicing regulation (SF3A1, SF3A3, SF3B1, SF3B2), apoptosis (MCL-1L), protein folding (DNAJB1), and cell cycle regulation (AURKA, PLK-1) relative to the unspliced control GAPDH. Primers were designed to evaluate intron retention or exon skipping, direct responses to splice modulator treatment. The master splicing regulator alternative splicing factor (SF2) was also evaluated, with the primers for this gene designed to evaluate overall gene expression, which changes in response to splice modulator treatment.
(§4) From this 4 h study (FIG. 14), a small set of analogs (1, 1b, 1g, 1d, 1e, 1i and 1j) were selected to evaluate if effects on splicing when presented for a longer 24 h period. […] Using identical procedures as that used for 4 h, HCT116 cells were treated with three concentrations (100 nM, 250 nM and 500 nM) of each analog for 24 h. Multiple concentrations were used as a means to check further validate the use of the GI50 concentration in our prior study (FIG. 14). As before, none of the concentrations tested led to significant changes in cell viability over the 24-hour time window, ensuring that changes in gene expression were not due to cell death.
(§5) Cells were treated with 1 or 1a-1j in media (McCoy's 5a (Life Technologies) supplemented with 10% FBS, 2 mM L-glutamine, and 100 U mL^−1 of penicillin and 100 μg mL^−1 of streptomycin 0.5% DMSO) for 4 h or 24 h. Untreated cells were considered were used as negative control. Total RNA was isolated using mirVana miRNA isolation kit (Life Technologies). […]

[2] = test system: HCT116 tumor cells; assay: qPCR structure-splicing profile over the gene panel; assay type: cell-based, human; conditions: HCT116, 24 h, 100, 250, 500 nM, compared to 1
Protocol: as §1, with “analogues” for “each analogue”, “100 nM (light grey), 250 nM (grey), or 500 nM (black)” for “20 times the G150 value (Table 12)”, “24 h” for “4 hours”, “(MCL-1L), and” for “(MCL-1L),”, “(DNAJB1),” for “(DNAJB1), and cell cycle regulation (AURKA, PLK-1)”, “(—)” for “(−)”
as §3, §4
(§6) Cells were treated with 1 or 1a-1j in media (McCoy's 5a (Life Technologies) supplemented with 10% FBS, 2 mM L-glutamine, and 100 U mL^−1 of penicillin and 100 μg mL^−1 of streptomycin 0.5% DMSO) for 4 h or 24 h. Untreated cells were considered were used as negative control. Total RNA was isolated using mirVana miRNA isolation kit (Life Technologies). A 1 μg sample of RNA was subjected to DNAseI from a TURBO DNA free kit (Life Technologies). The cDNA was prepared by using SuperScript III reverse transcriptase kit (Life Technologies). The amount of unspliced RNA for different genes was determined using Power SYBR Green PCR master mix (Applied Biosystems) by qPCR using specific primers for each gene. qPCR using 2.5 μM of each primer was performed on 5 ng of the obtained cDNA. qPCR conditions were as follows: 95° C. for 10 min for one cycle, then 95° C. for 10 min for one cycle, then 95° C. for 30 s, 55° C. for 60 s, 72° C. for 60 s, for 40 cycles using the MXPro. Quantification cycle (Cq) values were identified for each sample, and then RNA levels were calculated using 2-ΔΔCT method. GAPDH was used as a control for normalization. At least three replicates were conducted for each compound. Namely, all genes explored in this study were evaluated from the same cell cultures. Here, individual cultures were used for each compound explored and at least three replicates were used for each compound. While experimental variation occurred between the different compound treatments, the levels of the different intron retention, exon skipping or RNA expression were collected from the same cellular material. Statistics were calculated using a standard one-way ANOVA; p values were represented so that * signifies p<0.0001. HCT116 were treated with analogs 1-1j ranging from 0.1-5000 nM for 72 hours, then cell viability was measured using the MTS assay. GI50 values and confidence intervals were calculated using GraphPad (Table 12).

[3] = test system: HCT116 colorectal carcinoma cells; assay: MTS cell viability / cell growth inhibition assay; assay type: cell-based, human; conditions: for cell growth inhibitory activity compared to FD-895: HCT-116 cells; for GI50: Homo sapiens, HCT-116, 72 h, read-out: GI50 value
Protocol: With milligram quantities of 1a-1i at hand, we began our studies to evaluate the relative efficacy of each analogue using cell growth inhibition studies in HCT116 colorectal carcinoma cells. As reported in FIG. 3, GI50 values were collected for each analog after a 72 h treatment using the MTS cell viability assay (Table 12). Under these conditions, the natural FD-895 (1), 3S-FD-895 (1a) 17S-FD-895 (1d), 17-methoxy-FD-895 (1e) provided activities of <10 nM.
HCT-116 cells was cultured in McCoy's 5a (Life Technologies) supplemented with 10% fetal bovine serum (FBS), 2 mM L-glutamine, and 100 U mL^−1 of penicillin and 100 μg mL^−1 of streptomycin at 37° C. in an atmosphere of 5% CO2. Compounds were dissolved in DMSO (MilliporeSigma). Cells were treated with 1-1j in media with ≥0.5% DMSO for 4-72 h.
Studies were conducted in […] cell culture plates. HCT-116 plated at 5×10^3 cells/well were cultured for 24 h and then treated with analogs 1-1j for 4-72 h, then washed twice with 100 μL PBS. PBS (100 μL) was added to each well, followed by 20 μL of CellTiter Aqueous One Solution (Promega). After 2 h at 37° C., absorbance readings were taken at 490 nm (test wavelength) and 690 nm (reference wavelength). GI50 values were calculated in Prism (GraphPad) using greater 3 replicates.
as §6

[4] = test system: SF3A1; assay: qPCR splicing analysis, SF3A1 intron retention; assay type: cell-based, human; conditions: HCT116, 4 h, 20 times GI50, qPCR relative to GAPDH
Protocol: as §1
as §1, with “analogues” for “each analogue”, “100 nM (light grey), 250 nM (grey), or 500 nM (black)” for “20 times the G150 value (Table 12)”, “24 h” for “4 hours”, “(MCL-1L), and” for “(MCL-1L),”, “(DNAJB1),” for “(DNAJB1), and cell cycle regulation (AURKA, PLK-1)”, “(—)” for “(−)”
as §2, §3, §4
as §5, with “Technologies). A 1 μg sample of RNA was subjected to DNAseI from a TURBO DNA free kit (Life Technologies). The cDNA was prepared by using SuperScript III reverse transcriptase kit (Life Technologies).” for “Technologies).”

[5] = test system: PLK-1; assay: qPCR splicing analysis, PLK-1 exon skipping / RNA expression; assay type: cell-based, human; conditions: HCT116, 4 h, 20 times GI50, qPCR
Protocol: as §1, §2, §3, §4
Cells were treated with 1 or 1a-1j in media (McCoy's 5a (Life Technologies) supplemented with 10% FBS, 2 mM L-glutamine, and 100 U mL^−1 of penicillin and 100 μg mL^−1 of streptomycin 0.5% DMSO) for 4 h or 24 h. Untreated cells were considered were used as negative control. Total RNA was isolated using mirVana miRNA isolation kit (Life Technologies). A 1 μg sample of RNA was subjected to DNAseI from a TURBO DNA free kit (Life Technologies). […] The amount of unspliced RNA for different genes was determined using Power SYBR Green PCR master mix (Applied Biosystems) by qPCR using specific primers for each gene. qPCR using 2.5 μM of each primer was performed on 5 ng of the obtained cDNA. qPCR conditions were as follows: 95° C. for 10 min for one cycle, then 95° C. for 10 min for one cycle, then 95° C. for 30 s, 55° C. for 60 s, 72° C. for 60 s, for 40 cycles using the MXPro. Quantification cycle (Cq) values were identified for each sample, and then RNA levels were calculated using 2-ΔΔCT method. […] Namely, all genes explored in this study were evaluated from the same cell cultures. […]

[6] = estimated, based on E7107; cited from earlier work
[7] = test system: SF2; assay: qPCR gene expression of alternative splicing factor SF2; assay type: cell-based, human; conditions: HCT116, 4 h, 20 times GI50, qPCR
Protocol: as §1
as §1, with “analogues” for “each analogue”, “100 nM (light grey), 250 nM (grey), or 500 nM (black)” for “20 times the G150 value (Table 12)”, “24 h” for “4 hours”, “(MCL-1L), and” for “(MCL-1L),”, “(DNAJB1),” for “(DNAJB1), and cell cycle regulation (AURKA, PLK-1)”, “(—)” for “(−)”
as §2, §3
From this 4 h study (FIG. 14), a small set of analogs (1, 1b, 1g, 1d, 1e, 1i and 1j) were selected to evaluate if effects on splicing when presented for a longer 24 h period. […] Using identical procedures as that used for 4 h, HCT116 cells were treated with three concentrations (100 nM, 250 nM and 500 nM) of each analog for 24 h. […]

[8] = test system: SF3B2; assay: qPCR splicing analysis, SF3B2 intron retention; assay type: cell-based, human; conditions: HCT116, 4 h, 20 times GI50, qPCR relative to GAPDH
Protocol: as §1
as §1, with “analogues” for “each analogue”, “100 nM (light grey), 250 nM (grey), or 500 nM (black)” for “20 times the G150 value (Table 12)”, “24 h” for “4 hours”, “(MCL-1L), and” for “(MCL-1L),”, “(DNAJB1),” for “(DNAJB1), and cell cycle regulation (AURKA, PLK-1)”, “(—)” for “(−)”
as §2, §3, §4
as §5, with “Technologies). A 1 μg sample of RNA was subjected to DNAseI from a TURBO DNA free kit (Life Technologies). The cDNA was prepared by using SuperScript III reverse transcriptase kit (Life Technologies).” for “Technologies).”

| Compound | DNAJB1 intron 2 retention (level of intron retention) [1] | splicing activity over the genes tested [2] | cell growth inhibitory activity compared to FD-895 [3] | GI50 ([3]; HCT116, 72 hours, MTS assay, 0.1-5000 nM) [nM] | SF3A1 intron 6 retention (level of intron retention) [4] | effect on exon 3 inclusion in PLK-1 [5] | human maximum tolerated dose (MTD) [6] [mg/m^2] | down regulating the expression of SF2 RNA [7] | SF3B2 intron retention (level of intron retention) [8] | fold less active (GI50) than 1 ([3]; HCT116 cell growth inhibition, compared to 1) [fold] | GI50 [3] [nM] |
| --- | --- | --- | --- | --- | --- | --- | --- | --- | --- | --- | --- |
| CC[C@H](OC)[C@@H](C)[C@H]1O[C@@H]1[C@H](OC)[C@H](C)/C=C/C=C(\C)[C@H]1OC(=O)C[C@H](O)CC[C@@](C)(O)[C@@H](OC(C)=O)/C=C/[C@@H]1C [Analog 1e, 17-methoxy-FD-895] | highest level of intron retention | comparable or slightly reduced splice modulatory activity as 1 | comparable cell growth inhibitor activity as 1 | 2.21 | more effective than 1 |  |  |  |  |  |  |
| CCC(OC)C(C)C1OC1C(O)C(C)/C=C/C=C(\C)C1OC(=O)CC(O)CCC(C)(O)C(OC(C)=O)/C=C/C1C (stereo not shown) [Analog 1, FD-895, reference compound] |  | altered the splicing of many of the genes tested | potent cell growth inhibitor |  |  | most potent effect | 4 | highest efficacy |  |  |  |
| CC[C@H](OC)[C@@H](C)[C@H]1O[C@@H]1[C@H](O)[C@H](C)/C=C/C=C(\C)[C@H]1OC(=O)C[C@H](O)CC[C@@](C)(O)[C@H](OC(C)=O)/C=C/[C@@H]1C [Analog 1b, 7R-FD-895] |  | loss of splicing activity when compared to 1 | compromised activity |  |  |  |  |  | improved efficacy | 250 | 432 |
| CC[C@H](OC)[C@@H](C)[C@H]1O[C@@H]1[C@H](O)[C@H](C)/C=C/C=C(\C)[C@H]1OC(=O)C[C@H](O)CC[C@@](C)(O)[C@@H](OC(C)=O)/C=C/[C@@H]1C [Analog 1, FD-895, reference compound] |  |  |  |  |  |  |  |  |  |  | 1.72 |
